# Measurements: paper PMC5823870 (Scientific Reports, 2018)
# Key:
# [1] = target: Blh DUF442 domain (ST domain) (Xylella fastidiosa, UniProt Q9PFB0); conditions: 12 mM potassium phosphate pH 7.4, 25 °C; 12 mM thiosulfate; cyanide as sulfur acceptor
# O=S(O)(O)=S = experiment: purified protein; conditions: 12 mM potassium phosphate pH 7.4, 25 °C, cyanide 12 mM as sulfur acceptor (methods print potassium cyanate), thiosulfate 0 to 100 mM
# Chain of Blh DUF442 domain (ST domain) (Q9PFB0 1-141 limits assumed): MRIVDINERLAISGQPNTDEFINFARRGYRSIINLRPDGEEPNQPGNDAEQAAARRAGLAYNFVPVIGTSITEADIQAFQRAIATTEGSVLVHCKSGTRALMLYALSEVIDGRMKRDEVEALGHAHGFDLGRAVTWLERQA
Compound,"rhodanese assay, iron-thiocyanate absorbance at 460 nm [1]",Km (O=S(O)(O)=S) [mM]
O=S(=O)(O)S [thiosulfate],catalyze the transfer of the sulfane sulfur of thiosulfate to cyanide,–
full-length Blh (Xylella fastidiosa 9a5c),–,6.2
